According to paper PMC10845951, “Characterization of a selective, iron-chelating antifungal compound that disrupts fungal metabolism and synergizes with fluconazole” (Microbiology Spectrum, 2024):

System: C. glabrata gene expression
Experiment: RNA sequencing (gene regulation)
Type: cell-based, Candida glabrata
Conditions: for Log2 Fold-Change: vs DMSO; for Regulation Status: 26CvsDMSO
Description: Cells from overnight precultures in YPD medium were reinoculated in fresh YNB −iron medium (see “Culture maintenance” for contents) without iron and grown until OD600 of 0.4. […] Cells were collected from three independent experiments, snap frozen, and stored at −80°C. Total RNA purification was performed as previously described using the RNeasy Mini Kit (74104, Qiagen), and gDNA removal was made using the RNase-Free DNase Set kit (79254, Qiagen). RNA quantification and quality control were done with a Tape Station 4150 (Agilent) ([59]).
Library preparation and sequencing were performed at GenomEast (IGBMC, Illkirch, France). One DMSO 0.05% sample was excluded from the analysis due to insufficient quality. The library was sequenced on Illumina Hiseq 4000 sequencer as single-read 50-base reads following Illumina’s instructions. Reads were pre-processed in order to remove adapter, polyA, and low-quality sequences (Phred quality score below 20). Reads shorter than 40 bases were discarded from further analysis. These pre-processing steps were performed using cutadapt version 1.10 ([60]). Image analysis and base calling were performed using RTA 2.7.7 and bcl2fastq2.17.1.14. Adapter dimer reads were removed using DimerRemover (https://sourceforge.net/projects/dimerremover/). The quality of the RNAseq reads was examined using FastQC 0.11.2 (http://www.bioinformatics.babraham.ac.uk/projects/fastqc/) and FastQScreen 0.5.1 (https://www.bioinformatics.babraham.ac.uk/projects/fastq_screen/). Reads were mapped onto the ASM254v2 assembly of Candida glabrata genome using STAR version 2.5.3a ([61]). Gene expression quantification was performed from uniquely aligned reads using htseq-count version 0.6.1p1 ([62]), with annotations from Ensembl fungi version 50 and union mode. Only non-ambiguously assigned reads have been retained for further analyses. Read counts were normalized across samples with the median-of-ratios method ([63]). Comparisons were implemented in the Bioconductor package DESeq2 version 1.16.1 using the test for differential expression ([64]). Genes with no P-value corresponded to genes with high Cook’s distance that were filtered out. P-values were adjusted for multiple testing using the Benjamini and Hochberg method ([65]). Genes with no adjusted P-value correspond to genes filtered out in the independent filtering step in order to remove reads from genes that have no or little chance of showing evidence of significant differential expression.

c1ccc(-c2cccc(-c3ccccn3)n2)nc1 [2,2′:6′,2′′-terpyridine]
Log2 Fold-Change (TSA1 CAGL0K06259g): 1.052 | Log2 Fold-Change (ZPR1 CAGL0K00759g): 0.6092 | Regulation Status (gene CAGL0F07029g MET13): Downregulated | Regulation Status (gene CAGL0F07513g): Downregulated | Regulation Status (gene CAGL0F08481g): Downregulated | Regulation Status (gene CAGL0F08503g): Downregulated | Regulation Status (gene CAGL0F09163g): Downregulated | Regulation Status (gene CAGL0G01903g MET1): Downregulated | Regulation Status (gene CAGL0G02695g): Downregulated | Regulation Status (gene CAGL0G03619g): Downregulated | Regulation Status (gene CAGL0G03861g): Downregulated | Regulation Status (gene CAGL0G03883g): Downregulated | Regulation Status (gene CAGL0G03905g): Downregulated | Regulation Status (gene CAGL0G06050g): Downregulated | Regulation Status (gene CAGL0G06402g): Downregulated | Regulation Status (gene CAGL0G06600g): Downregulated | Regulation Status (gene CAGL0G06732g): Downregulated | Regulation Status (gene CAGL0G07711g): Downregulated | Regulation Status (gene CAGL0G08712g KGD1): Downregulated | Regulation Status (gene CAGL0G09581g): Downregulated | Regulation Status (gene CAGL0G10131g): Downregulated | Regulation Status (gene CAGL0G10153g): Downregulated | Regulation Status (gene CAGL0H02365g): Downregulated | Regulation Status (gene CAGL0H02491g): Downregulated | Regulation Status (gene CAGL0H02541g): Downregulated | Regulation Status (gene CAGL0H03531g MNP1): Downregulated | Regulation Status (gene CAGL0H03795g LEU2): Downregulated | Regulation Status (gene CAGL0H03993g CIT1): Downregulated | Regulation Status (gene CAGL0H05775g): Downregulated | Regulation Status (gene CAGL0H05797g): Downregulated | Regulation Status (gene CAGL0H06732g): Downregulated | Regulation Status (gene CAGL0H06743g): Downregulated | Regulation Status (gene CAGL0H07023g): Downregulated | Regulation Status (gene CAGL0H08283g HSP10): Downregulated | Regulation Status (gene CAGL0H09306g): Downregulated | Regulation Status (gene CAGL0H09328g): Downregulated | Regulation Status (gene CAGL0H10076g): Downregulated | Regulation Status (gene CAGL0I00924g): Downregulated | Regulation Status (gene CAGL0I01276g): Downregulated | Regulation Status (gene CAGL0I01298g): Downregulated | Regulation Status (gene CAGL0I01408g CYC1): Downregulated | Regulation Status (gene CAGL0I01496g): Downregulated | Regulation Status (gene CAGL0I01848g): Downregulated | Regulation Status (gene CAGL0I02728g): Downregulated | Regulation Status (gene CAGL0I03190g RIP1): Downregulated | Regulation Status (gene CAGL0I04180g AMT1): Downregulated | Regulation Status (gene CAGL0I04994g MET6): Downregulated | Regulation Status (gene CAGL0I05280g): Downregulated | Regulation Status (gene CAGL0I05698g): Downregulated | Regulation Status (gene CAGL0I06270g): Downregulated | Regulation Status (gene CAGL0I06644g): Downregulated | Regulation Status (gene CAGL0I06831g): Downregulated | Regulation Status (gene CAGL0I06985g): Downregulated | Regulation Status (gene CAGL0I07969g): Downregulated | Regulation Status (gene CAGL0I08305g): Downregulated | Regulation Status (gene CAGL0I08503g): Downregulated | Regulation Status (gene CAGL0I08767g): Downregulated | Regulation Status (gene CAGL0I09009g): Downregulated | Regulation Status (gene CAGL0I09262g): Downregulated | Regulation Status (gene CAGL0I09812g): Downregulated | Regulation Status (gene CAGL0I10923g): Downregulated | Regulation Status (gene CAGL0J00429g COX6): Downregulated | Regulation Status (gene CAGL0J00847g SDH1): Downregulated | Regulation Status (gene CAGL0J01463g): Downregulated | Regulation Status (gene CAGL0J01699g): Downregulated | Regulation Status (gene CAGL0J02090g): Downregulated | Regulation Status (gene CAGL0J03806g): Downregulated | Regulation Status (gene CAGL0J04026g): Downregulated | Regulation Status (gene CAGL0J04268g): Downregulated | Regulation Status (gene CAGL0J04554g): Downregulated | Regulation Status (gene CAGL0J04884g): Downregulated | Regulation Status (gene CAGL0J05302g): Downregulated | Regulation Status (gene CAGL0J06380g): Downregulated | Regulation Status (gene CAGL0J06490g): Downregulated | Regulation Status (gene CAGL0J06820g): Downregulated | Regulation Status (gene CAGL0J08316g): Downregulated | Regulation Status (gene CAGL0J09680g): Downregulated | Regulation Status (gene CAGL0J09790g): Downregulated | Regulation Status (gene CAGL0J11484g DUG3): Downregulated | Regulation Status (gene CAGL0J11682g): Downregulated | Regulation Status (gene CAGL0K00110g AWP2): Downregulated | Regulation Status (gene CAGL0K02409g): Downregulated | Regulation Status (gene CAGL0K02893g): Downregulated | Regulation Status (gene CAGL0K03663g): Downregulated | Regulation Status (gene CAGL0K04279g SCM4): Downregulated | Regulation Status (gene CAGL0K06677g MET8): Downregulated | Regulation Status (gene CAGL0K06853g): Downregulated | Regulation Status (gene CAGL0K07315g): Downregulated | Regulation Status (gene CAGL0K07678g): Downregulated | Regulation Status (gene CAGL0K08184g CCP1): Downregulated | Regulation Status (gene CAGL0K08668g MET28): Downregulated | Regulation Status (gene CAGL0K08800g ADI1): Downregulated | Regulation Status (gene CAGL0K09218g): Downregulated | Regulation Status (gene CAGL0K10120g): Downregulated | Regulation Status (gene CAGL0K10868g CTA1): Downregulated | Regulation Status (gene CAGL0K10956g): Downregulated | Regulation Status (gene CAGL0K10978g): Downregulated | Regulation Status (gene CAGL0K12100g): Downregulated | Regulation Status (gene CAGL0K12958g): Downregulated | Regulation Status (gene CAGL0L00429g): Downregulated | Regulation Status (gene CAGL0L00759g HIS1): Downregulated | Regulation Status (gene CAGL0L00803g): Downregulated
